Assay results: ChEMBL document CHEMBL5512627, “Small-molecule agents for treating skin diseases” (Eur J Med Chem, 2024)
Values belong to the compound of their own block, whether it stands above or below them.

Experiments:
[1] = biological target: T1, 3-oxo-5-alpha-steroid 4-dehydrogenase 1 (Homo sapiens, UniProt P18405); assay: Inhibition of human steroid 5-alpha-reductase 1
T1 sequence (P18405 whole entry): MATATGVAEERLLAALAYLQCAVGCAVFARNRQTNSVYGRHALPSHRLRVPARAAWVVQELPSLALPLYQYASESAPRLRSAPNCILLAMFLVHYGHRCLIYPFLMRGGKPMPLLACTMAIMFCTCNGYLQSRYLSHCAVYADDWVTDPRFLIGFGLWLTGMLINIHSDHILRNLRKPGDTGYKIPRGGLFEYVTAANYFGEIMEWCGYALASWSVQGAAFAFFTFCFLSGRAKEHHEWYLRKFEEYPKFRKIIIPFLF

[2] = Inhibition of lipid synthesis in androgen stimulated Hamster flank gland; type: functional, Mesocricetus auratus
[3] = Upregulation of NE suppressed c-Kit expression in human epidermal melanocyte; type: functional, cell-based
Mus musculus [4] = species: Mus musculus; assay: Anti-inflammatory activity in imiquimod-induced C57BL/6 mouse psoriasis model assessed as reduction in epidermal thickness at 200 uL relative to control; type: functional; set-up: scale not given: the % may be the effect or the level left
Mus musculus [5] = species: Mus musculus; assay: Anti-inflammatory activity in imiquimod-induced BALB/c mouse psoriasis model assessed as reduction in skin inflammation; type: functional, organism-based

- IC50 [1]: 14.2 nM
Structure (SMILES): CC1=C2CCc3cc(/C=C/c4ccccc4)ccc3N2CCC1=O

Structure (SMILES): C[C@]12C=CC(=O)C=C1CC[C@@H]1[C@@H]2C(=O)C[C@@]2(C)[C@H]1CC[C@]2(Cl)S(=O)(=O)Cc1ccccc1
- inhibition (INH) [2]: 70%

Structure (SMILES): COC(=O)C1=CO[C@@H](O[C@@H]2O[C@H](CO)[C@@H](O)[C@H](O)[C@H]2O)[C@@H]2C(CO)=CC[C@H]12 [GENIPOSIDE]
- EC50 [3]: 1650 nM

Structure (SMILES): CCc1ccc(N(CC(C)C)S(=O)(=O)c2ccc(OCC3CCOCC3)c(CO)c2)cc1 [GSK2981278]
- Activity (Mus musculus [4]): 23%

- EC50 (Mus musculus [5]): 4 nM
Structure (SMILES): CN1C(=O)[C@@H](NC(=O)c2n[nH]c(Cc3ccccc3)n2)COc2ccccc21 [GSK2982772]
